How the values were obtained:
Tg-SwDI mice [1] = test: Cerebral artery reactivity to CO2 supply (vascular pulsation driving force) in Tg-SwDI mice; assay type: in vivo; conditions: vs ordinary feed group
From the text: In brain interstitial flow in a central nervous system, vascular wall motion caused by vascular pulsation of artery serves as a driving force so that harmful proteins are excreted (see Mechanisms to explain the reverse perivascular transport of solutes out of the brain. J Theor Biol. 2006 Feb. 21; 238(4): 962-74), Dilation of artery in vascular pulsation is caused by an increased blood pressure in artery due to pulsation of heart, and a decrease in dilation ability of artery attenuates vascular wall motion, and also reduces the interstitial flow. […] The degree of vascular elasticity in cerebral artery can be evaluated by using reactivity with a change in the concentration of blood carbon dioxide. Specifically, cerebral artery whose vascular elasticity and vascular pulsation driving force are maintained, has the ability of sufficiently dilating the vessel diameter afer an increase in the concentration of blood carbon dioxide, and maintains excretion ability for harmful proteins through h interstitial flow. On the other hand, cerebral artery whose vascular elasticity and vascular pulsation driving force are decreased, loses the ability of sufficiently dilating the vessel diameter in response to an increase in the concentration of blood carbon dioxide, and has its escretion ability for harmful proteins impaired. […]

dementia patients = test: Retrospective clinical survey, MMSE change in dementia patients with first MMSE score less than or equal to 21; assay type: in vivo, human
From the text: Thus, it is not worth referring to these reports. It is assumed that a considerable degree of irreversible neurodegeneration has progressed in dementia patients, and in view of the action mechanism of the interstitial flow-improving agent, a sufficient therapeutic effect of the interstitial flow-improving agent might not be present for dementia patients. Thus, to evaluate the influence of consecutive oral administration of cilostazol on the cognitive function, a survey of consecutive cases (3183 cases in total) for which record of cilostazol administration between 1996 and 2012 exists was conducted, and examination was conducted by using all the cases matching the following conditions. In this study, to eliminate the influence of anti-dementia drugs, patients administered with anti-dementia drugs such as donepezil were removed from the analysis.
(i) The mini mental state exam (MMSE), which is a typical test of cognitive function, was conducted twice or more with an interval of 6 months or more (in a case where the MMSE was performed three or more times, two examination results of the first examination and the last examination were selected);
(ii) The first MMSE score was less than or equal to 21;
(iii) A case in which cilostazol was administered in a period at least more than a half of an MMSE observation period was selected as a group (hereinafter referred to as a treated group) subjected to consecutive treatment; and
(iv) A case in which cilostazol was administered in two months or less in an MMSE observation period was selected as a group (hereinafter referred to as an untreated group) not subjected to consecutive treatment.
(i) The rate of change in MMSE score in each group (calculation method: [last MMSE score−first MMSE score]/MMSE observation period [years]). In comparison between the two groups, statistical analysis was conducted such that the rate difference was obtained by using a chi-square test and other items were obtained by using a t test.

Tg-SwDI mice [2] = test: Cerebrovascular diameter increase under acetylcholine administration to the brain surface; assay type: in vivo; conditions: acetylcholine 100 μM perfused, vs ordinary feed
From the text: In the brain interstitial flow in a central nervous system, vascular wall motion due to artery vascular pulsation serves as a driving force so that harmful proteins are excreted. Dilation of artery in vascular pulsation occurs when the blood pressure in artery increases due to pulsation of heart. A decrease in dilation ability of artery attenuates vascular wall motion, and reduces the interstitial flow accordingly. In the presence of aged mice and cerebral amyloid angiopathy, vascular elasticity (flexibility) of cerebral artery considerably decreases, and vascular wall motion attenuates. Thus, the ability of excretion of harmful proteins deteriorates. In this study, the influence of cilostazol administration on vascular elasticity ability under acetylcholine administration was examined.
It is known that acetylcholine has the physiological action of improving vascular elasticity. […]
In a manner similar to section (1) regarding vascular elasticity enhancement by cilostazol discussed above, model mice (Tg-SwDI mice) (Davis et al, 2004) showing pathological changes, especially cerebral amyloid angiopathy, were used. […] Cerebral blood vessels were visualized with FITC-dextran, and the rate of change in vessel diameter from a time before administration to 3 minutes after the start of administration was analyzed. […]

Alzheimer's patients = conditions: cilostazol alone in Alzheimer's patients, Non-patent Document 10; cited from earlier work

With `O=C1CCc2cc(OCCCCc3nnnn3C3CCCCC3)ccc2N1` [cilostazol, 6-[4-(1-cyclohexyl-1H-tetrazole-5-yl)butoxy]3,4-dihydrocarbostyril] the “cerebral artery vasodilation ability with the CO2 supply (relative increase in cerebrovascular diameter)” value (Tg-SwDI mice [1]; 5% CO2, cilostazol-containing feed for 13.5 months, age 15 months, FIG. 5) was “significantly enhances cerebral artery vasodilation ability”, the “cerebral artery vasodilation ability (relative increase rate of the vessel diameter) by the CO2 supply” value (Tg-SwDI mice [1]; cilostazol-containing feed for 8 months, age 12 months, FIG. 6) was “significantly increases the cerebral artery vasodilation ability” and the “rate of change in MMSE score” value (dementia patients; dementia treated group (19 cases), first MMSE less than or equal to 21, average±standard error, P value 0.21 vs untreated) was 0.5±0.7 /year. For the same compound, the “therapeutic effects on dementia” value (dementia patients; first MMSE less than or equal to 21, treated vs untreated) was “no statistically significant therapeutic effects on dementia were observed”, the “side effects leading to no consecutive cilostazol treatment” value (dementia patients; untreated group of dementia survey) was “side effects such as diarrhea and headaches” and the “relative increase in cerebrovascular diameter under acetylcholine administration” value (Tg-SwDI mice [2]; cilostazol-containing feed for 8 months, age 12 months, FIG. 23) was “dilated”. For the same compound, the “relative increase in cerebrovascular diameter under acetylcholine administration” value (Tg-SwDI mice [2]; cilostazol-containing feed for 13.5 months, age 15 months, FIG. 24) was “dilated” and the “mini-mental state examination (MMSE)” value (Alzheimer's patients) was “no change is observed”.
